Assay results published in patent US20240238265A1 (priority 2020, published 2024).
Where a name gives a salt, the structure may show the parent alone. Read-outs that look alike come from different tables or passages of the source.

Columns and labels:
[1] = tested on: pseudotyped VSV expressing SUDV glycoprotein; test: microbe, parasite or virus in culture; assay type: cell-based, Sudan virus (SUDV); conditions: read-out: EC50 (uM) Pseudotype Assays SUDV
[2] = tested on: pseudotyped VSV expressing EBOV glycoprotein; test: microbe, parasite or virus in culture; assay type: cell-based, Ebola virus (EBOV); conditions: read-out: EC50 (uM) Pseudotype Assays EBOV
[3] = tested on: pseudotyped VSV expressing BDBV glycoprotein; test: microbe, parasite or virus in culture; assay type: cell-based, Bundibugyo virus (BDBV); conditions: Vesicular stomatitis virus, Vero, 24 h, read-out: EC50 (uM) Pseudotype Assays BDBV
[4] = tested on: pseudotyped VSV expressing MARV glycoprotein; test: microbe, parasite or virus in culture; assay type: cell-based, Marburg virus (MARV); conditions: Vesicular stomatitis virus, Vero, 24 h, read-out: EC50 (uM) Pseudotype Assays MARV
[5] = 1 h, pH 7.4
[6] = 1 h, pH 7.4; remark: listed apart in the source
[7] = 1 h, pH 7.4; remark: listed apart in the source
in vitro = conditions: African green monkey
[8] = 1 h, pH 7.4; remark: listed apart in the source
WT EBOV-Mayinga = test: microbe, parasite or virus in culture; assay type: cell-based, Ebola virus (EBOV); conditions: Zaire ebolavirus
[9] = Vesicular stomatitis virus, Vero, 24 h

SMILES | EC50 [1, 9] [µM] | EC50 ([2]; Zaire ebolavirus, Vero, 24 h) [µM] | EC50 [3] [µM] | EC50 [4] [µM] | CC50 (in vitro) [nM] | also measured
CC12CC3CC(C(=S)N4CC[C@H](N)C(C)(C)C4)(C1)CC(c1ccccc1)(C3)C2 (mixture of isomers) [Example C1] | 0.035 | 0.06 | 0.085 | – | – | –
CC12CC3CC(C(=S)N[C@H]4CC[C@H](N)CC4)(C1)CC(c1ccccc1)(C3)C2 (mixture of isomers) [Example C2] | 0.07 | 0.06 | 0.085 | – | – | –
CC12CC3CC(C(=S)N[C@H]4CN5CCC4CC5)(C1)CC(c1ccccc1)(C3)C2 (mixture of isomers) [Example C3] | 0.1 | 0.17 | 0.24 | – | – | –
N[C@H]1CC[C@H](NC(=O)C23CC4CC(CCl)(C2)CC(c2ccccc2)(C4)C3)CC1 (mixture of isomers) [Example E1, rac-trans-N-(4-aminocyclohexyl)-3-(chloromethyl)-5-phenyladamantane-1-carboxamide hydrochloride] | 0.56 | 0.034 | 0.12 | > 1 | 13800 | Percent parent compound remaining at 60 minutes in liver microsomes, Human [5]: 89%; Percent parent compound remaining at 60 minutes in liver microsomes, Mouse [6]: 69%; Percent parent compound remaining at 60 minutes in liver microsomes, Guinea Pig [7]: 100%; Percent parent compound remaining at 60 minutes in liver microsomes, Monkey [8]: 72%
CC1(C)CN(C(=O)C23CC4CC(CCl)(C2)CC(c2ccccc2)(C4)C3)CC[C@@H]1N (mixture of isomers) [Example E2, rac-((S)-4-amino-3,3-dimethylpiperidin-1-yl)(3-(chloromethyl)-5-phenyladamantan-1-yl)methanone] | 0.165 | 0.057 | 0.35 | > 1 | 36900 | –
N[C@H]1CC[C@H](NC(=O)C23CC4CC(Br)(C2)CC(c2ccccc2)(C4)C3)CC1 (mixture of isomers) [Example E3, rac-trans-N-(4-aminocyclohexyl)-3-bromo-5-phenyladamantane-1-carboxamide] | 0.34 | 0.061 | 0.19 | – | – | Percent parent compound remaining at 60 minutes in liver microsomes, Human [5]: 97.5%; Percent parent compound remaining at 60 minutes in liver microsomes, Guinea Pig [7]: 96%; Percent parent compound remaining at 60 minutes in liver microsomes, Monkey [8]: 91%
CSCC12CC3CC(C(=O)N[C@H]4CC[C@H](N)CC4)(C1)CC(c1ccccc1)(C3)C2 (mixture of isomers) [Example E6, rac-trans-N-(4-aminocyclohexyl)-3-((methylthio)methyl)-5-phenyladamantane-1-carboxamide] | 0.75 | 0.05 | 0.6 | > 1 | 34600 | –
N[C@H]1CC[C@H](NC(=O)C23CC4CC(CSc5ccccc5)(C2)CC(c2ccccc2)(C4)C3)CC1 (mixture of isomers) [Example E7, rac-trans-N-(4-aminocyclohexyl)-3-phenyl-5-((phenylthio)methyl)adamantane-1-carboxamide] | > 1 | 0.056 | 1.21 | > 1 | 4750 | –
CC1(C)CN(C(=O)C23CC4CC(CSc5ccccc5)(C2)CC(c2ccccc2)(C4)C3)CC[C@@H]1N (mixture of isomers) [Example E8, rac-((S)-4-amino-3,3-dimethylpiperidin-1-yl)(3-phenyl-5-((phenylthio)methyl)adamantan-1-yl)methanone] | > 1 | 0.145 | > 1 | > 1 | – | –
CC1(C)CN(C(=S)[C@@]23C[C@H]4C[C@@](C)(C2)C[C@](c2ccccc2)(C4)C3)CC[C@@H]1N [Example A1, ((S)-4-amino-3,3-dimethylpiperidin-1-yl)((1 S,3R,5R,7S)-3-methyl-5-phenyladamantan-1-yl)methanethione] | 0.043 | 0.061 | 0.11 | > 1 | 3800 | Percent parent compound remaining at 60 minutes in liver microsomes, Human [5]: 72%; Percent parent compound remaining at 60 minutes in liver microsomes, Guinea Pig [7]: 32%; Percent parent compound remaining at 60 minutes in liver microsomes, Monkey [8]: 19%
C[C@]12CC3CC(C(=S)N[C@H]4CN5CCC4CC5)(C1)C[C@@](c1ccccc1)(C3)C2 [Example A3] | 0.08 | 0.067 | 0.29 | > 1 | 1770 | –
C[C@]12CC3CC(C(=S)N4CCC(N)CC4)(C1)C[C@@](c1ccccc1)(C3)C2 [Example A4] | 0.04 | 0.085 | 0.06 | – | 4090 | –
C[C@]12CC3CC(C(=S)N[C@H]4CC[C@@H](N)CC4)(C1)C[C@@](c1ccccc1)(C3)C2 [Example A5] | 0.125 | 0.12 | 0.19 | – | – | –
C[C@]12CC3CC(C(=S)NC4CCNCC4)(C1)C[C@@](c1ccccc1)(C3)C2 [Example A6] | 0.08 | 0.064 | 0.085 | – | 4720 | –
C[C@]12CC3CC(C(=S)N[C@H]4CC[C@H](CN)CC4)(C1)C[C@@](c1ccccc1)(C3)C2 [Example A7] | 0.095 | 0.075 | 0.09 | – | 2860 | –
CC1(C)CN(C(=S)C23CC4C[C@](C)(C2)C[C@@](c2ccccc2)(C4)C3)CC[C@@H]1N [Example B1] | 0.26 | 0.74 | 0.4 | – | – | –
C[C@@]12CC3CC(C(=S)N[C@H]4CC[C@H](N)CC4)(C1)C[C@](c1ccccc1)(C3)C2 [Example B2] | 0.26 | 0.09 | 0.16 | – | 3720 | –
C[C@@]12CC3CC(C(=S)N[C@H]4CN5CCC4CC5)(C1)C[C@](c1ccccc1)(C3)C2 [Example B3] | 0.36 | 0.66 | 0.31 | > 1 | – | –
N[C@H]1CC[C@H](NC(=S)C2C3CC4CC2CC(c2ccccc2)(C4)C3)CC1 (stereo partly drawn) [Example D1, trans-N-(4-aminocyclohexyl)-5-phenyladamantane-2-carbothioamide] | 0.29 | 0.21 | 0.3 | – | – | –
CCCC1C2CC3(C(=O)N[C@H]4CC[C@H](N)CC4)CC1CC(c1ccccc1)(C2)C3 (stereo partly drawn) [Example F3] | 0.39 | 0.005 | 0.08 | 1.6 | 4650 | EC50 (WT EBOV-Mayinga; read-out: WT EBOV-Mayinga EC50 (uM)): ~0.008 µM; EC90 (WT EBOV-Mayinga; read-out: WT EBOV-Mayinga EC90 (uM)): ~0.01 µM; Percent parent compound remaining at 60 minutes in liver microsomes, Human [5]: 91%; Percent parent compound remaining at 60 minutes in liver microsomes, Mouse [6]: 26%; Percent parent compound remaining at 60 minutes in liver microsomes, Guinea Pig [7]: 48%; Percent parent compound remaining at 60 minutes in liver microsomes, Monkey [8]: 100%
CC(C)CC1C2CC3(C(=O)N[C@H]4CC[C@H](N)CC4)CC1CC(c1ccccc1)(C2)C3 (stereo partly drawn) [Example F4] | 0.86 | 0.016 | 0.3 | 1.38 | 5800 | –
CCC1C2CC3(C(=O)N4CC[C@H](N)C(C)(C)C4)CC1CC(c1ccccc1)(C2)C3 (stereo partly drawn) [Example F5] | 0.1 | 0.046 | – | – | 12300 | –
CC1(O)C2CC3(C(=O)N[C@H]4CC[C@H](N)CC4)CC1CC(c1ccccc1)(C2)C3 (stereo partly drawn) [Example H1, trans-N-(4-aminocyclohexyl)-6-hydroxy-6-methyl-3-phenyladamantane-1-carboxamide] | > 1 | > 1 | – | – | – | –
CC1(O)C2CC3(C(=O)N[C@H]4CC[C@H](N)CC4)CC1CC(c1ccccc1)(C2)C3 (stereo partly drawn) [Example H2, trans-N-(4-aminocyclohexyl)-6-hydroxy-6-methyl-3-phenyladamantane-1-carboxamide] | – | – | – | – | – | EC50 [1]: > 1 µM; EC50 [2]: > 1 µM
CCC1(Cl)C2CC3(C(=O)N4CC[C@H](N)C(C)(C)C4)CC1CC(c1ccccc1)(C2)C3 (stereo partly drawn) [Example H3, ((S)-4-amino-3,3-dimethylpiperidin-1-yl)(6-chloro-6-ethyl-3-phenyladamantan-1-yl)methanone] | 0.17 | 0.063 | – | – | 14700 | –
N[C@H]1CC[C@H](NC(=O)C23CC4CC(c5ccccc5)(CC(C2)C4CCF)C3)CC1 (stereo partly drawn) [Example H4, trans-N-(4-aminocyclohexyl)-6-(2-fluoroethyl)-3-phenyladamantane-1-carboxamide] | 0.16 | 0.014 | – | – | 25100 | Percent parent compound remaining at 60 minutes in liver microsomes, Human [5]: 81%; Percent parent compound remaining at 60 minutes in liver microsomes, Mouse [6]: 39%; Percent parent compound remaining at 60 minutes in liver microsomes, Guinea Pig [7]: 80.5%
N[C@H]1CC[C@H](NC(=O)C23CC4CC(c5ccccc5)(CC(C2)C4CCCl)C3)CC1 (stereo partly drawn) [Example H5, trans-N-(4-aminocyclohexyl)-6-(2-chloroethyl)-3-phenyladamantane-1-carboxamide] | 0.27 | 0.01 | – | – | 7260 | Percent parent compound remaining at 60 minutes in liver microsomes, Human [5]: 85%; Percent parent compound remaining at 60 minutes in liver microsomes, Mouse [6]: 35%; Percent parent compound remaining at 60 minutes in liver microsomes, Guinea Pig [7]: 80.5%
N[C@H]1CC[C@H](NC(=O)C23CC4CC(c5ccccc5)(CC(C2)C4CC(F)F)C3)CC1 (stereo partly drawn) [Example H6, trans-N-(4-aminocyclohexyl)-6-(2,2-difluoroethyl)-3-phenyladamantane-1-carboxamide] | 0.18 | 0.02 | – | – | 22200 | –
